Assay [1] is described as follows: Inhibition of RANTES-induced migration of human embryonic kidney (CCR1/HEK) cell transfectants.
For assay [2], the target named is T1, C-C chemokine receptor type 1 (Homo sapiens, UniProt P32246).
T1 sequence (P32246 whole entry): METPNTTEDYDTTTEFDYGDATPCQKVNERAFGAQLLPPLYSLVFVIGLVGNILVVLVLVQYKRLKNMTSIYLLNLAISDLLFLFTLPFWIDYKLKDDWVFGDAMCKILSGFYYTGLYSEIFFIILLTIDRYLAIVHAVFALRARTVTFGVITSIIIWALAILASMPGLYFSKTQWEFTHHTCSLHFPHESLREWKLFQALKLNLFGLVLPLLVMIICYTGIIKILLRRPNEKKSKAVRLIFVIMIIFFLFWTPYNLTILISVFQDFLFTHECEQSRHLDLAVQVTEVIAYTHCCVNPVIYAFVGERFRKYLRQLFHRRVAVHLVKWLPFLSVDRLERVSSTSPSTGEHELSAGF
Kind of assay: ChEBML_40342. An excerpt: Inhibition of RANTES-induced migration of human embryonic kidney (CCR1/HEK) cell transfectants

Structures are written as SMILES.

Consider `CC(C)CCCC(C)[C@H]1CC[C@H]2[C@@H]3CCC4C[C@@H](CCC=C(c5cc(Cl)c(O)c(C(=O)O)c5)c5cc(Cl)c(O)c(C(=O)O)c5)CC[C@]4(C)[C@H]3CC[C@]12C` (some centres undefined), for which inhibition in assay [1] was half-maximal at 0.26 µM (IC50).

`CC(C)CCCC(C)[C@H]1CC[C@H]2[C@@H]3CCC4C[C@@H](CCC=C(c5cc(Cl)c(O)c(C(=O)NCC(=O)O)c5)c5cc(Cl)c(O)c(C(=O)NCC(=O)O)c5)CC[C@]4(C)[C@H]3CC[C@]12C` (some centres undefined) showed an IC50 in assay [1] of 10 µM.

Consider `[C][C]([C])[C][C][C][C]([C])[C@H]1[C][C][C@H]2[C@@H]3[C][C][C]4[C][C@@H]([C][C][C]=C(c5cc(Cl)c(O[C]c6ccc(-c7cccc(C([O])=O)c7)cc6)c(C(=O)O)c5)c5cc(Cl)c(O[C]c6ccc(-c7cccc(C([O])=O)c7)cc6)c(C(=O)O)c5)[C][C][C@]4([C])[C@H]3[C][C][C@]12[C]` [5-{1-{3-carboxylato-4-[4-(3-carboxyphenyl)benzyloxy]-5-chlorophenyl}-4-[1-(1,5-dimethylhexyl)-9a,11a-dimethylperhydrocyclopenta[a]phenanthren-7-yl]-1-butenyl}-2-[4-(3-carboxyphenyl)benzyloxy]-3-chlorobenzoate], for which the IC50 in assay [2] came to 9.1 µM.

`[C][C]([C])[C][C][C][C]([C])[C@H]1[C][C][C@H]2[C@@H]3[C][C][C]4[C][C@@H]([C][C][C]=C(c5cc(Cl)c(O[C]c6cccc(B([O])O)c6)c(C(=O)O)c5)c5cc(Cl)c(O[C]c6cccc(B([O])O)c6)c(C(=O)O)c5)[C][C][C@]4([C])[C@H]3[C][C][C@]12[C]` [Cosalane derivative] came in with an IC50 in assay [2] of 4 µM.

The values above are taken from BindingDB's records for doi:10.1016/s0960-894x(00)00601-6 (National Cancer Istitute-Frederick Cancer Research and …, 2001).
